Patent US20120141479A1, “Histone Deacetylase Inhibitors Sensitize Cancer Cells To Epidermal Growth Factor Inhibitors” (priority 2007, published 2012)

Columns and labels:
Format in all cases: cell-based
[1] = test system: E-cad expression in H520 cells; assay: E-cad expression after HDAC inhibitor treatment; conditions: 24 hours after treatment with 4 or 10 μM MS-275
Protocol: (§1) RNA, Primers, and Quantitative Real-Time RT-PCR. Total RNA was prepared from NSCLC cell lines using the RNAeasy (Qiagen). During the preparation all samples were treated with RNase-free DNase 1 (10 mg/ml, Qiagen) prior to cDNA synthesis. cDNA was synthesized as part of the RT-PCR reaction from […] total RNA. Quantitative Real-Time RT-PCR assays were performed using the SYBR Green RT-PCR Kit (Qiagen) using a GeneAmp 5700 Sequence Detector (Applied Biosystems), which allows amplification and detection (by fluorescence) in the same tube, using a kinetic approach. Amplification data were analyzed by using GENEAMP 5700 SDS software, converted into cycle numbers at a set cycle threshold (Ct values) and quantified in relation to a standard. Human adult-lung (Clontech Lab. Inc) or human fetal-lung RNA (Stratagene) was used as standards in all the experiments. Standards were used at […]. In each experiment a no-template control was used as a control. To normalize for the amount of input cDNA, the quantified relative amount of the generated product was divided by the amount generated for the housekeeping gene beta-Actin. All samples were performed in triplicates.
(§2) Expression of E-cad was evaluated in these cell lines.

[2] = test system: E-cad expression in H460 cells; assay: E-cad expression after HDAC inhibitor treatment; conditions: 24 hours after treatment with 4 or 10 μM MS-275
Protocol: as §1, §2

[3] = test system: E-cad expression in H157 cells; assay: E-cad expression after HDAC inhibitor treatment; conditions: 24 hours after treatment with 4 or 10 μM MS-275
Protocol: as §1, §2

[4] = test system: Detroit562 head & neck cancer cell line; assay: Modified MTT growth inhibition assay
Protocol: (§3) Combination administrations were performed as sequential treatments where the HDAC inhibitor was administer prior to the EGFR inhibitor, or simultaneous treatments in selected cell lines. Concentrations of HDAC inhibitors and EGFR inhibitors are indicated as μM concentrations in all experiments. SNDX275 was administered in three increasing concentrations, with a variety of ranges depending upon the cell line.
(§4) Drugs were diluted in fresh medium before each experiment, and the final DMSO concentration was <0.1%. Growth inhibition was assessed using a modified MTT assay. 2×10^3 cells were plated in each well of 96-well flat-bottomed microtiter plates and drugs were added the next day. […] The microtiter plates were incubated for 4 hours at 37° C. The visible absorbance of each well was measured using an automated plate reader (Molecular Devices, Sunnyvale, Calif.), and data were analyzed using SlideWrite to determine the drug IC50.

[5] = test system: HPAFII pancreatic cancer cell line; assay: Modified MTT growth inhibition assay; conditions: SNDX275 added as first drug
Protocol: as §3, §4

[6] = test system: Panc02.03 pancreatic cancer cell line; assay: Modified MTT growth inhibition assay; conditions: Panc 02.03
Protocol: as §3, §4

[7] = test system: UMSCC22B head & neck cancer cell line; assay: Modified MTT growth inhibition assay
Protocol: as §3, §4

[8] = test system: 1483 head & neck cancer cell line; assay: Modified MTT growth inhibition assay; conditions: SNDX275 added as first drug
Protocol: as §3, §4

[9] = test system: Panc03.27 pancreatic cancer cell line; assay: Modified MTT growth inhibition assay; conditions: Panc 03.27, both drugs added at the same time
Protocol: as §3, §4

[10] = test system: 584 head & neck cancer cell line; assay: Modified MTT growth inhibition assay; conditions: SNDX275 added as first drug
Protocol: as §3, §4

[11] = test system: HS766T pancreatic cancer cell line; assay: Modified MTT growth inhibition assay
Protocol: as §3, §4

[12] = test system: FaDu head & neck cancer cell line; assay: Modified MTT growth inhibition assay
Protocol: as §3, §4

[13] = test system: UMSCC19 head & neck cancer cell line; assay: Modified MTT growth inhibition assay
Protocol: as §3, §4

[14] = test system: Panc04.03 pancreatic cancer cell line; assay: Modified MTT growth inhibition assay; conditions: Panc 04.03
Protocol: as §3, §4

[15] = test system: MSK2922 head & neck cancer cell line; assay: Modified MTT growth inhibition assay; conditions: SNDX275 added as first drug
Protocol: as §3, §4

[16] = SNDX275 0.60 μM alone, SNDX275 added as first drug
[17] = SNDX275 0.60 μM alone, both drugs added at the same time
[18] = SNDX275 2.00 μM alone, SNDX275 added as first drug
[19] = SNDX275 2.00 μM alone, both drugs added at the same time
[20] = SNDX275 0.6 μM alone, both drugs added at the same time
[21] = SNDX275 1.0 μM alone, SNDX275 added as first drug
[22] = SNDX275 1.0 μM alone, both drugs added at the same time
[23] = SNDX275 3.0 μM alone, SNDX275 added as first drug
[24] = SNDX275 3.0 μM alone, both drugs added at the same time
[25] = SNDX275 6.0 μM alone, SNDX275 added as first drug
[26] = SNDX275 6.0 μM alone, both drugs added at the same time

Nc1ccccc1NC(=O)c1ccc(CNC(=O)OCc2cccnc2)cc1 [MS-275]
upregulation of E-cad expression [1]: Eight to twelve fold
upregulation of E-cad expression [2]: Eight to twelve fold
upregulation of E-cad expression [3]: Eight to twelve fold
surviving ([4]; SNDX275 0.06 μM alone, SNDX275 added as first drug): 75.017%
surviving ([4]; SNDX275 0.06 μM alone, both drugs added at the same time): 79.829%
surviving [4, 16]: 58.925%
surviving [4, 17]: 72.276%
surviving [4, 18]: 23.887%
surviving [4, 19]: 28.832%
surviving ([5]; SNDX275 0.10 μM alone): 74.635%
surviving ([5]; SNDX275 0.30 μM alone): 42.098%
surviving ([5]; SNDX275 1.00 μM alone): 28.287%
surviving ([6]; SNDX275 0.6 μM alone, SNDX275 added as first drug): 71.569%
surviving [6, 20]: 44.980%
surviving [6, 21]: 34.220%
surviving [6, 22]: 34.529%
surviving [6, 23]: 24.323%
surviving [6, 24]: 25.444%
surviving [7, 21]: 73.156%
surviving [7, 22]: 76.730%
surviving ([7]; SNDX275 2.0 μM alone, SNDX275 added as first drug): 55.978%
surviving ([7]; SNDX275 2.0 μM alone, both drugs added at the same time): 63.169%
surviving [7, 25]: 25.180%
surviving [7, 26]: 55.057%
surviving ([8]; SNDX275 0.6 μM alone): 79.246%
surviving ([8]; SNDX275 2.0 μM alone): 51.509%
surviving ([8]; SNDX275 3.0 μM alone): 31.776%
surviving ([9]; SNDX275 0.10 μM alone): 78.263%
surviving ([9]; SNDX275 2.00 μM alone): 38.926%
surviving ([9]; SNDX275 6.00 μM alone): 21.757%
surviving ([10]; SNDX275 0.3 μM alone): 84.045%
surviving ([10]; SNDX275 1.0 μM alone): 45.516%
surviving ([10]; SNDX275 2.0 μM alone): 20.656%
surviving [11, 21]: 77.851%
surviving [11, 22]: 78.939%
surviving [11, 25]: 40.175%
surviving [11, 26]: 55.038%
surviving ([11]; SNDX275 10.0 μM alone, SNDX275 added as first drug): 77.851%
surviving ([11]; SNDX275 10.0 μM alone, both drugs added at the same time): 32.797%
surviving ([12]; SNDX275 0.30 μM alone, SNDX275 added as first drug): 69.008%
surviving ([12]; SNDX275 0.30 μM alone, both drugs added at the same time): 87.506%
surviving [12, 16]: 48.451%
surviving [12, 17]: 73.418%
surviving [12, 18]: 20.262%
surviving [12, 19]: 30.504%
surviving ([13]; SNDX275 0.60 μM alone, SNDX275 added as first drug (first table)): 73.417%
surviving ([13]; SNDX275 0.60 μM alone, SNDX275 added as first drug (second table)): 83.778%
surviving ([13]; SNDX275 2.00 μM alone, SNDX275 added as first drug (first table)): 54.951%
surviving ([13]; SNDX275 2.00 μM alone, SNDX275 added as first drug (second table)): 46.466%
surviving ([13]; SNDX275 6.00 μM alone, SNDX275 added as first drug (first table)): 24.242%
surviving ([13]; SNDX275 6.00 μM alone, SNDX275 added as first drug (second table)): 37.033%
surviving ([14]; SNDX275 0.3 μM alone, SNDX275 added as first drug): 71.205
surviving [14, 20]: 63.051%
surviving [14, 21]: 49.175
surviving [14, 22]: 28.676%
surviving [14, 23]: 37.954
surviving [14, 24]: 25.551%
surviving ([15]; SNDX275 0.3 μM alone): 68.519%
surviving ([15]; SNDX275 0.6 μM alone): 42.857%
surviving ([15]; SNDX275 1.0 μM alone): 24.438%
